Measured values as given in US10206902B2, “Mono- or di-substituted indoles as dengue viral replication inhibitors” (priority 2014, dated 2019).

Columns and labels:
in vitro = format: cell-based; settings: African green monkey, CC50
Method: (§1) In parallel, the toxicity of the compounds was assessed on the same plates. Once the read-out for the eGFP signal was done, 10 μL of resazurin, a cell viability stain, was added to all wells of the 384-well plates. The resazurin assay is based on the reduction of the blue resazurin by NADH, produced by the cells, into the highly fluorescent product, resorufin. The formation of pink fluorescent resorufin is directly related to the number of viable cells in the well. The plates were incubated for an additional 5 hours in a fully humidified incubator (37° C., 5% CO2). Next, the plates were measured on an Infinite reader (Tecan) using an excitation wavelength of 530 nm. The half maximal cytotoxic concentration (CO50) was also determined, defined as the concentration required to reduce the resazurin conversion by 50% compared to that of the cell control wells (Table 1). Finally, the selectivity index (SI) was determined for the compounds, which was calculated as followed: SI=CC50/EC50.

DENV-2 16681 strain = assay: DENV-2 antiviral assay (eGFP-labelled virus in Vero cells); format: cell-based, Dengue virus; settings: DENV-2 16681 eGFP, MOI 0.5, 3 days
Method: The antiviral activity of all the compounds of the invention was tested against DENV-2 16681 strain which was labeled with enhanced green fluorescent protein (eGPF). The culture medium consists of minimal essential medium supplemented with 2% of heat-inactivated fetal calf serum, 0.04% gentamycin (50 mg/mL) and 2 mM of L-glutamine. Vero cells, obtained from ECACC, were suspended in culture medium and 25 μL was added to 384-well plates (2500 cells/well), which already contain the antiviral compounds. Typically, these plates contain a 4-fold serial dilution of 9 dilution steps of the test compound at 200 times the final concentration in 100% DMSO (200 nL). In addition, each compound concentration is tested in quadruplicate (final concentration range: 25 μM-0.00038 μM). Finally, each plate contains wells which are assigned as virus controls (containing cells and virus in the absence of compound), cell controls (containing cells in the absence of virus and compound) and medium controls (containing medium in the absence of cells, virus and compounds). To the wells assigned as medium control, 25 μL of culture medium was added instead of Vero cells. Once the cells were added to the plates, the plates were incubated for 30 minutes at room temperature to allow the cells to distribute evenly within the wells. Next, the plates were incubated in a fully humidified incubator (37° C., 5% CO2) until the next day. Then, DENV-2 strain 16681, labeled with eGFP, was added at a multiplicity of infection (MOI) of 0.5. Therefore, 15 μL of virus suspension was added to all the wells containing test compound and to the wells assigned as virus control. In parallel, 15 μL of culture medium was added to the medium and cell controls. Next, the plates were incubated for 3 days in a fully humidified incubator (37° C., 5% CO2). At the day of the read out, the eGFP fluorescence was measured using an automated fluorescence microscope at 488 nm (blue laser). Using an in-house LIMS system, inhibition dose response curves for each compound were calculated and the half maximal effective concentration (EC50) was determined. Therefore, the percent inhibition (I) for every test concentration is calculated using the following formula: I=100*(ST−SCC)/(SVC−SCC); ST, SCC and SVC are the amount of eGFP signal in the test compound, cell control and virus control wells, respectively. The EC50 represents the concentration of a compound at which the virus replication is inhibited with 50%, as measured by a 50% reduction of the eGFP fluorescent intensity compared to the virus control. The EC50 is calculated using linear interpolation (Table 1).

Vero cells = assay: in vitro; format: cell-based; settings: African green monkey
Method: as §1

[1] = Dengue virus, DENV2, Vero, 72 h

| Compound | CC50 (in vitro) [µM] | EC50 (DENV-2 16681 strain) [µM] | EC50 (DENV-2 16681 strain; [1]) [µM] | CC50 (Vero cells) [µM] |
| --- | --- | --- | --- | --- |
| COc1cc(NC(C(=O)c2c[nH]c3c(F)c(F)ccc23)c2ccc(F)cc2OC)cc(OCCO)c1 (single isomer, unassigned) [Compound 5A, 1-(6,7-difluoro-1H-indol-3-yl)-2-(4-fluoro-2-methoxyphenyl)-2-((3-(2-hydroxyethoxy)-5-methoxyphenyl)amino)ethanone] | 7.4 | 0.44 | – | – |
| COc1cc(NC(C(=O)c2c[nH]c3cc(F)ccc23)c2ccc(F)cc2OC)cc(OCCO)c1 (racemic) [Compound 1, 1-(6-fluoro-1H-indol-3-yl)-2-(4-fluoro-2-methoxyphenyl)-2-((3-(2-hydroxyethoxy)-5-methoxyphenyl)amino)ethanone] | 11 | – | 0.008 | – |
| COc1cc(NC(C(=O)c2c[nH]c3cc(Cl)ccc23)c2ccc(F)cc2OC)cc(OCCO)c1 (single isomer, unassigned) [Compound 4B, 1-(6-chloro-1H-indol-3-yl)-2-(4-fluoro-2-methoxyphenyl)-2-((3-(2-hydroxyethoxy)-5-methoxyphenyl)amino)ethanone] | 7.7 | 0.38 | – | – |
| COc1cc(NC(C(=O)c2c[nH]c3c(Cl)c(OC)ccc23)c2ccc(F)cc2OC)cc(OCCO)c1 (single isomer, unassigned) [Compound 8B, 1-(7-chloro-6-methoxy-1H-indol-3-yl)-2-(4-fluoro-2-methoxyphenyl)-2-((3-(2-hydroxyethoxy)-5-methoxyphenyl)amino)ethanone] | 9.1 | 0.15 | – | – |
| COc1cc(NC(C(=O)c2c[nH]c3c(F)c(F)ccc23)c2ccc(F)cc2OC)cc(OCCO)c1 (racemic) [Compound 5, 1-(6,7-difluoro-1H-indol-3-yl)-2-(4-fluoro-2-methoxyphenyl)-2-((3-(2-hydroxyethoxy)-5-methoxyphenyl)amino)ethanone] | 5.2 | – | 0.0089 | – |
| COc1cc(NC(C(=O)c2c[nH]c3cc(F)c(F)cc23)c2ccc(F)cc2OC)cc(OCCO)c1 (racemic) [Compound 10, 1-(5,6-difluoro-1H-indol-3-yl)-2-(4-fluoro-2-methoxy-phenyl)-2-((3-(2-hydroxyethoxy)-5-methoxyphenyl)amino)ethanone] | 9.3 | – | 0.0068 | – |
| COc1cc(NC(C(=O)c2c[nH]c3cc(OC)c(F)cc23)c2ccc(F)cc2OC)cc(OCCO)c1 (racemic) [Compound 7, 2-(4-fluoro-2-methoxyphenyl)-1-(5-fluoro-6-methoxy-1H-indol-3-yl)-2-((3-(2-hydroxyethoxy)-5-methoxyphenyl)amino)ethanone] | > 9.7 | – | 0.014 | – |
| COc1cc(NC(C(=O)c2c[nH]c3cc(F)ccc23)c2ccc(F)cc2OC)cc(OCCO)c1 (single isomer, unassigned) [Compound 1B, 1-(6-fluoro-1H-indol-3-yl)-2-(4-fluoro-2-methoxyphenyl)-2-((3-(2-hydroxyethoxy)-5-methoxyphenyl)amino)ethanone] | 12 | 0.66 | – | – |
| COc1cc(NC(C(=O)c2c[nH]c3c(C)c(F)ccc23)c2ccc(F)cc2OC)cc(OCCO)c1 (racemic) [Compound 2, 2-(4-fluoro-2-methoxyphenyl)-1-(6-fluoro-7-methyl-1H-indol-3-yl)-2-((3-(2-hydroxyethoxy)-5-methoxyphenyl)amino)ethanone] | 7 | – | 0.0054 | – |
| COc1cc(NC(C(=O)c2c[nH]c3c(C)c(Cl)ccc23)c2ccc(F)cc2OC)cc(OCCO)c1 (single isomer, unassigned) [Compound 3B, 1-(6-chloro-7-methyl-1H-indol-3-yl)-2-(4-fluoro-2-methoxyphenyl)-2-((3-(2-hydroxyethoxy)-5-methoxyphenyl)amino)ethanone] | 5.8 | 0.18 | – | – |
| COc1cc(NC(C(=O)c2c[nH]c3c(C)c(F)ccc23)c2ccc(F)cc2OC)cc(OCCO)c1 (single isomer, unassigned) [Compound 2A, 2-(4-fluoro-2-methoxyphenyl)-1-(6-fluoro-7-methyl-1H-indol-3-yl)-2-((3-(2-hydroxyethoxy)-5-methoxyphenyl)amino)ethanone] | 5.4 | 0.66 | – | – |
| COc1cc(NC(C(=O)c2c[nH]c3c(C)cc(F)cc23)c2ccc(F)cc2OC)cc(OCCO)c1 (single isomer, unassigned) [Compound 9A, 2-(4-fluoro-2-methoxyphenyl)-1-(5-fluoro-7-methyl-1H-indol-3-yl)-2-((3-(2-hydroxyethoxy)-5-methoxyphenyl)amino)ethanone] | 8.8 | 0.63 | – | – |
| COc1cc(NC(C(=O)c2c[nH]c3cc(OC)c(C)cc23)c2ccc(F)cc2OC)cc(OCCO)c1 (single isomer, unassigned) [Compound 6B, 2-(4-fluoro-2-methoxyphenyl)-2-((3-(2-hydroxyethoxy)-5-methoxyphenyl)amino)-1-(6-methoxy-5-methyl-1H-indol-3-yl)ethanone] | – | 0.29 | – | 9.6 |
| COc1cc(NC(C(=O)c2c[nH]c3cc(F)c(F)cc23)c2ccc(F)cc2OC)cc(OCCO)c1 (single isomer, unassigned) [Compound 10A, 1-(5,6-difluoro-1H-indol-3-yl)-2-(4-fluoro-2-methoxy-phenyl)-2-((3-(2-hydroxyethoxy)-5-methoxyphenyl)amino)ethanone] | 11 | 0.58 | – | – |
| COc1cc(NC(C(=O)c2c[nH]c3c(Cl)c(OC)ccc23)c2ccc(F)cc2OC)cc(OCCO)c1 (racemic) [Compound 8, 1-(7-chloro-6-methoxy-1H-indol-3-yl)-2-(4-fluoro-2-methoxyphenyl)-2-((3-(2-hydroxyethoxy)-5-methoxyphenyl)amino)ethanone] | 6.8 | – | 0.0039 | – |
| COc1cc(NC(C(=O)c2c[nH]c3c(C)c(OC)ccc23)c2ccc(F)cc2OC)cc(OCCO)c1 (racemic) [Compound 11, 2-(4-fluoro-2-methoxyphenyl)-2-((3-(2-hydroxyethoxy)-5-methoxyphenyl)amino)-1-(6-methoxy-7-methyl-1H-indol-3-yl)ethanone] | 10 | – | 0.0024 | – |
| COc1cc(NC(C(=O)c2c[nH]c3c(F)cc(C)cc23)c2ccc(F)cc2OC)cc(OCCO)c1 (single isomer, unassigned) [Compound 12A, 2-(4-fluoro-2-methoxyphenyl)-1-(7-fluoro-5-methyl-1H-indol-3-yl)-2-((3-(2-hydroxyethoxy)-5-methoxyphenyl)amino)ethanone] | 9.2 | 0.93 | – | – |
| COc1cc(NC(C(=O)c2c[nH]c3c(C)c(Cl)ccc23)c2ccc(F)cc2OC)cc(OCCO)c1 (racemic) [Compound 3, 1-(6-chloro-7-methyl-1H-indol-3-yl)-2-(4-fluoro-2-methoxyphenyl)-2-((3-(2-hydroxyethoxy)-5-methoxyphenyl)amino)ethanone] | 6.3 | – | 0.0021 | – |
| COc1cc(NC(C(=O)c2c[nH]c3c(C)c(OC)ccc23)c2ccc(F)cc2OC)cc(OCCO)c1 (single isomer, unassigned) [Compound 11B, 2-(4-fluoro-2-methoxyphenyl)-2-((3-(2-hydroxyethoxy)-5-methoxyphenyl)amino)-1-(6-methoxy-7-methyl-1H-indol-3-yl)ethanone] | 12 | 0.41 | – | – |
| COc1cc(NC(C(=O)c2c[nH]c3cc(OC)c(F)cc23)c2ccc(F)cc2OC)cc(OCCO)c1 (single isomer, unassigned) [Compound 7B, 2-(4-fluoro-2-methoxyphenyl)-1-(5-fluoro-6-methoxy-1H-indol-3-yl)-2-((3-(2-hydroxyethoxy)-5-methoxyphenyl)amino)ethanone] | – | 0.54 | – | 14 |
